Experiment [1] has as its system GH release. Put plainly: GH release after GHRP-6 alone and in combination with GHRH in old versus young rats. Format: in vivo, Fischer 344 rats. The settings on record: GHRP-6 alone, old vs young rats. An excerpt: Fischer 344 rats (Charles River), both male and female, were used. Young animals are defined as sexually mature between 2 and 7 months of age. Old animals are defined as those over 16 months of age.
GHRH-efficacy has been reported to be reduced 50 to 75% in old rats (Sonntag et al., 1983); therefore, applicants tested the effect of GHRP-6 alone and in combination with GHRH on GH release in old rats. Peak plasma GH concentrations resulting from GHRP-6 administration in old rats were approximately 60% less than in young rats. […] Since target organs sometimes become hyperresponsive when tonic and/or phasic stimulation decreases, than one would expect exaggerated responses to provocative exogenous stimuli under experimental conditions. GH hypersecretion observed in naive, old rats administered a single bolus of GHRH and GHRP (Walker et al., 1991) provides support for the hypothesis that deficits in stimulated GH secretion in aged rats were due to insufficient signals or inappropriately transduced GH releasing stimuli.

The test system of experiment [2] is GH release. The conditions noted are these: rats; Bercu et al., 1992a; cited from earlier work.
In experiment [3] the test system is GH release. Nature of the experiment: GHRP-6 activity in young rats with reduced endogenous GHRH (GHRH antiserum or α-methyl-p-tyrosine). The class given is in vivo. The procedure:
FIG. 2 is a dose response curve for GHRP-6 in rats pretreated with vehicle (triangles), α-methyl-p-tyrosine (circles), or GHRH antiserum (squares). Values represent means±SEM (8 rats per dose and treatment) in plasma collected 15 minutes after administration of GHRP-6.
Young rats were passively immunized against endogenous GHRH or administered α-methyl-.rho.-tyrosine. If GHRH and the endogenous ligand of GHRP-6 are physiological co-agonists of GH secretion in the young rat, then removal of one or the other should be expressed as attenuated activity of its co-agonist when administered alone. Passive immunization which inactivates GHRH with neutralizing antibodies, or α-methyl-p-tyrosine (L form) which blocks stimulation of hypothalamic GHRH neurons were used to remove or reduce concentrations of endogenous GHRH in the young experimental animals. These treatments were intended to simulate the aged condition in which concentrations of GHRH and GHRH mRNA are low (De Gennaro Collona et al., 1989; Morimoto et al., 1988). Afterwards, GHRP-6 was administered to test and compare its efficacy with that in old rats (Walker et al., 1991).
Presumably, naturally occurring decrements in endogenous GHRH during aging contributed to the blunted response to GHRP-6 that applicants observed (Walker et al., 1991). […]

In experiment [4] the test system is GH secretion. Put plainly: Provocative challenge with a GH secretagogue administered alone, peak serum GH. Format: in vivo. How it is done: The diagnostic potential of GHRX and GHRH, with GHRP and growth hormone releasing hormone respectively the preferred compounds, for determining the etiology of GH secretory deficiency is profoundly affected by the sequence in which the secretagogues are administered. When GHRH is administered alone, the GH secretory response it elicits is extremely variable and is poorly dose related (Table 1).
On the other hand, the response to GHRP administered alone is not variable (Table 2). The minimal variability of the GHRP response is presumed to result from its partial action as a somatostatin […].
The growth hormone levels in the blood of the child or adult can be measured by any well known procedures, e.g., using an immunoradiometric assay as described by Bowers et al. (1990) or any other contemporary, scientifically accepted method.

In experiment [5] the test system is GH secretion. Nature of the experiment: Pediatric study: sequential GHRP then GHRH bolus, and co-administration, serum GH by radioimmunoassay. Format: in vivo, children. The conditions noted are these: for GH response to sequentially administered secretagogue: hypopituitary subject (atrophic, developmentally retarded pituitary gland), FIG. 4B. The procedure:
The protocol used in the pediatric study from which data presented below were collected involved the sequential administration of exogenous GHRP and exogenous GHRH as set forth in the present invention (Table 4; FIGS. 1A-1B). Briefly, each subject began testing at approximately 0900 h, one half hour after placement of an intravenous catheter. Two blood samples for basal concentrations of serum GH were drawn, and GHRP (1 μg/kg) was administered as a bolus. Blood samples were then drawn at five minute intervals for 20 minutes during which the GH secretory response occurred, and at longer intervals for about two hours thereafter.
GHRH (1 μg/kg) was then administered as a bolus, when basal GH concentrations were again established. Blood samples were similarly collected after GHRH administration as they were following GHRP administration. GH concentrations in each serum was then determined by radioimmunoassay.
The study population was composed of children with normal GH secretory function (serving as controls and normal baseline values) and those with GH secretory dysfunction of various clinical diagnoses. The purpose of evaluating different etiologies of GH secretory dysfunction was to validate the hypothesis that complementary endogenous GH secretagogues must be present for optimal expression of GHRP or GHRH stimulatory potential.

For experiment [6], the system named is GH secretion. Put plainly: Repeated injections of GHRH preceded by GHRP in the same individual, peak serum GH. The class given is in vivo. The conditions noted are these: repeated tests in same individual. How it is done: The timing between the sequential, independent challenges must be between two and four hours with the preferred embodiment at two hours (120 minutes after GHRX administration). Blood is drawn at regular intervals for up to two hours after the administration of each secretagogue, generally every 5 minutes for the first 20 minutes after administration and 10-15 minute intervals thereafter for the remaining two hours. From these blood samples the peak GH response is measured thereby determining if GH level changes after each administration has occurred.
Relevant to using GHRH and GHRP as diagnostic agents is the fact that GHRP eliminates the endogenous factors causing variability in the GHRH response. Administration before GHRH creates an episode of GH secretion that "resets" the sensitivity of the GH neurosecretory axis to stimulation by GHRH, so that at the time of GHRH administration, uniform baseline conditions in the subject have been achieved. This then puts the GH neurosecretory axis in a uniform state of readiness for GHRH so that a subsequent relatively stable and constant episode of GHRH-stimulated GH secretion results (Table 3). This GHRH stimulated GH secretory episode can then be compared with the stable episode of GHRP-stimulated GH secretion that preceded it as a basis for the diagnostic test of the present invention.

A further experiment deals with T1, pituitary GHRH receptor (Rattus norvegicus, UniProt Q02644).
T1 construct: tissue Charles River; host or cells: living Fischer 344 rats (pituitary, in vivo)
T1 sequence (Q02644 23-464): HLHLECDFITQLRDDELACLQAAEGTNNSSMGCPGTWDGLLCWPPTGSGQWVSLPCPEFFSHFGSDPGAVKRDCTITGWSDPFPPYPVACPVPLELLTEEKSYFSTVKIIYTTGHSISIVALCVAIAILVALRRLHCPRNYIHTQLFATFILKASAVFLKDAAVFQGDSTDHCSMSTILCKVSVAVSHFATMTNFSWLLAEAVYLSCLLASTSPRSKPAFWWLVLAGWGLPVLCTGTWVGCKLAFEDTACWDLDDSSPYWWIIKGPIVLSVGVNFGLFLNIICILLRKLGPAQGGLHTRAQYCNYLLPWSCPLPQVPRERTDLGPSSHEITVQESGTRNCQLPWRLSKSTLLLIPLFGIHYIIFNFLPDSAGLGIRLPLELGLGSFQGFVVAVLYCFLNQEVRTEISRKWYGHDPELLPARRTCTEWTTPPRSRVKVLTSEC
Put plainly: Effect of GHRH receptor antagonist on GH release in response to GHRP-6 or morphine in young rats. Format: in vivo. How it is done: FIGS. 3A-3B are dose response curves showing the effect of [N-Ac-Tyr^1,D-Arg^2 ]-GRF 1-29 amide, a GHRHreceptor antagonist, on GH release in response to GHRP-6 (30 μg/kg, closed symbols, FIG. 3A) or morphine (1.5 mg/kg, open symbols, FIG. 3B). The GHRH receptor antagonist was administered in doses of 0 (circle), 5 (square), 50 (triangle), or 150 (diamond) μg/kg. Values represent mean±SEM 8 rats per group.
The second possible cause of age-related decrements in GH secretion applicants considered was that deterioration in GH secretagogue signal transduction at the pituitary level contributes to the progressive insensitivity to provocative stimuli. In a test of this hypothesis, applicants examined GH secretory responses to GHRP-6 in young rats administered [N-Ac-Tyr^1, D-Arg^2 ]-GRF 1-29, an antagonist to the pituitary GHRH receptor.
However, 150 μg/kg of [N-Ac-Tyr^1, D-Arg^2 ]-GRF 1-29 amide potentiated GHRP-6 activity, presumably due to partial agonist activity of the GHRH receptor […] at the higher dose (Bercu et al., 1992a).

Where a SMILES comes first, the peptide text is derived from it. Where no end group is shown, it is not given here. [ ]: non-standard residue; d: D form.

Take `C[C@H](NC(=O)[C@@H](Cc1c[nH]c2ccccc12)NC(=O)[C@@H](N)Cc1c[nH]cn1)C(=O)N[C@@H](Cc1c[nH]c2ccccc12)C(=O)N[C@H](Cc1ccccc1)C(=O)N[C@@H](CCCCN)C(N)=O` [GHRP-6, His-D-Trp-Ala-Trp-D-Phe-Lys-NH2] (H-H[dW]AW[dF]K-NH2): the “Peak plasma GH concentration in old rats, less than in young rats” value in the experiment on GH release [1] was “approximately 60%”. Besides, the “Reduction of GHRP-6 activity by passive immunization against endogenous GHRH” value in the experiment on GH release [2] was “approximately 90%”. In addition, the “GHRP-6 activity (plasma GH 15 minutes after GHRP-6)” value with GH release [3] (young female rats pretreated with GHRH antiserum) and in the experiment on GH release [3] (young female rats pretreated with α-methyl-p-tyrosine) was “significantly attenuated” each time. Further, the “Peak Serum GH x ± SEM” value was 17.51 ± 1.91 ng/mL in the experiment on GH secretion [4] (GHRP alone, 0.1 μg/kg); 41.31 ± 3.97 ng/mL in the experiment with GH secretion [4] (GHRP alone, 0.5 μg/kg); 67.88 ± 6.1 ng/mL in the experiment on GH secretion [4] (GHRP alone, 1.0 μg/kg); 81.60 ± 5.88 ng/mL in the experiment with GH secretion [4] (GHRP alone, 1.5 μg/kg); 69.31 ± 4.21 ng/mL with GH secretion [6] (GHRP 1.0 μg/kg given first). The “GHRP:GHRH ratio” value with GH secretion [5] (children after radiation of the head (group)) is reported as under 1; with GH secretion [5] (children responding poorly to both secretagogues but better to GHRP (group)), over 3. Besides, the “GHRP to GHRH ratio” value in the experiment with GH secretion [5] (constitutional delay subject, FIG. 4C) was found to be 3.1; with GH secretion [5] (irradiated subject, FIG. 4D), 0.38. For the same molecule, the “Peak response, serum GH” value in the experiment with GH secretion [5] (constitutional delay subject, FIG. 4C, GHRP-6 1 μg/kg) was 13.5 ng/mL; in the experiment on GH secretion [5] (irradiated subject, FIG. 4D, GHRP-6 1 μg/kg), 18.9 ng/mL. The “GH response to sequentially administered secretagogue” value with GH secretion [5] was “responded to neither”.
On to “GHRH: naturally occurring GH releasing hormone (growth hormone releasing hormone) (YADAIFTNSYRKVLGQLSARKLLQDIMSRQQGESNQERGARARL; ends and bridges not checked; UniProt P01286 32-75, looked up)”, for which the “Peak Serum GH x ± SEM” value stood at 9.46 ± 3.71 ng/mL in the experiment with GH secretion [4] (GHRH alone, 0.1 μg/kg); 16.45 ± 8.11 ng/mL in the experiment on GH secretion [4] (GHRH alone, 0.33 μg/kg); 13.54 ± 6.51 ng/mL in the experiment on GH secretion [4] (GHRH alone, 1.0 μg/kg); 21.80 ± 6.78 ng/mL in the experiment on GH secretion [4] (GHRH alone, 3.3 μg/kg); 17.41 ± 4.67 ng/mL in the experiment with GH secretion [4] (GHRH alone, 10.0 μg/kg); 32.66 ± 3.33 ng/mL in the experiment with GH secretion [6] (GHRH 1.0 μg/kg preceded by GHRP). Also, the “Peak response, serum GH” value with GH secretion [5] (constitutional delay subject, FIG. 4C, GHRH 1 μg/kg) is 4.4 ng/mL; in the experiment with GH secretion [5] (irradiated subject, FIG. 4D, GHRH 1 μg/kg), 49.4 ng/mL. Also, in the experiment with GH secretion [5], the “GH response to sequentially administered secretagogue” value is given as “responded to neither”.
For “[N-Ac-Tyr^1,D-Arg^2 ]-GRF 1-29 amide [[N-Ac-Tyr^1, D-Arg^2]-GRF 1-29 amide]”, the “GHRP-6 stimulated GH secretion as a function of time” value at pituitary GHRH receptor (50 μg/kg antagonist, P<0.05, FIG. 3A) is given as “significantly reduced”; on pituitary GHRH receptor (150 μg/kg antagonist, P<0.01, FIG. 3A), “significantly increased”. The “Effect on GHRP-6 activity” value at pituitary GHRH receptor (150 μg/kg, GHRP-6 30 μg/kg) is “potentiated”. Besides, the “Morphine-stimulated GH secretion” value at pituitary GHRH receptor (50 and 150 μg/kg antagonist, P<0.05, morphine 1.5 mg/kg, FIG. 3B) is recorded as “significantly reduced”. Further, at pituitary GHRH receptor (pre-administration of 5 to 50 μg/kg, GHRP-6 30 μg/kg), the “Effect on GHRP activity” value was “attenuated”.

Source of the values: patent US5811074A, “Method of diagnosing pituitary dependent growth hormone deficiency” (University of South Florida, priority 1996, dated 1998).
